Measurements from patent publication US11059830B2, “Compounds that participate in cooperative binding and uses thereof” (Revolution Medicines, Inc., priority 2015, dated 2021).

How the values were obtained:
FKBP12 [1] = molecular target: T1, FKBP12 (Homo sapiens (Human), UniProt P62942); test: AlphaLISA FKBP12 binding: inhibition of binding of biotinylated FK506 to FLAG tagged FKBP12; details: read-out: Binding affinity to FKBP12 (by displacement of FK506)
Excerpt: The binding of compounds of the invention to FKBP12 can be determined using the following protocol.
This protocol utilizes Perkin Elmers AlphaLISA technology platform to detect FKBP binders by measuring the inhibition of binding of biotinylated FK506 to FLAG tagged FKBP12.
10×TBST Buffer (Boston BioProducts IBB-181), Biotinylated FK506 (in-house), FLAG tagged FKBP (in-house); anti-FLAG Donor beads (Perkin Elmer AS103) and Streptavidin Acceptor beads (Perkin Elmer AL125); Compounds in DMSO (in-house), FK506.
Experimental Protocol/Description of Assay: Add 20 uL of 12.5 nM FKBP-FLAG working stock to each well of the 96-well plate. Add 1 uL of test compound (100% DMSO) to each well of the plate using the Janus MTD head and P20 tips (except control wells). Add 1 uL of DMSO to negative control wells and 1 uL of 50 uM FK506 solution to positive control wells. In the dark, add 20 uL of combined Donor/Acceptor beads to each well. Incubate in the dark for 30 minutes at room temperature. In the dark, add 10 uL of 5 nM biotinylated FK506 working stock to each well. Incubate in the dark for 60 minutes at room temperature. Protect plate from light until reading on Biotek Synergy2 Plate Reader; Alphalisa 96-well protocol (680 excitation/615 emission).

FKBP12 [2] = molecular target: T1, FKBP12; test: SPR binding of compound (analyte) to immobilized FKBP12 (Example 7); details: 25° C., 12×HIS tagged FKBP12 immobilized on NTA chip; read-out: SPR affinity to FKBP12: KD
Method: This protocol utilizes Surface Plasmon Resonance (SPR) as a method to determine kinetics (KD, Ka, Kd) for the binding of compound (analyte) to immobilized FKBP12 (ligand).
Compound in 100% DMSO (in-house), 10×HBS-P+ buffer (GE Healthcare BR-1006-71), Assay buffer (1×HBS-P+ buffer, 1% DMSO), 12×HIS tagged FKBP12 (in-house).
(§1) Experiments are performed at 25° C. Stock solution of 12×HIS tagged FKBP12 is diluted to 100 nM in assay buffer (1% DMSO final). Approximately 500-600 RU of FKBP12 is immobilized on one of two flow cells of an activated NTA chip. The second flow cell is not activated as a reference for non-specific interaction of the analyte to the sensor chip. Various concentrations of compound (1 nM-1 μM range), serially diluted into the same assay buffer (1% DMSO final), are injected onto the FKBP12 surface and reference surface at a flow rate of 10 μl/min. The surface is regenerated between analyte injections with 350 mM EDTA.
(§2) The BiaEvaluation software program is used for data fitting. All data is reference subtracted against both the reference flow cell and a buffer injection. For kinetic analyses, data is locally fit to a 1:1 interaction model.

HeLa-FKBP12 cells = test: Biosensor cell permeability assay (FKBP destabilizing mutant, whole cell); type: cell-based; details: 72 hrs
Method: Cell permeability of compounds can be determined using the following protocol.
This protocol utilizes a modified FKBP or cyclophilin destabilizing mutant to determine the bioactivity of FKBP binding compounds or cyclophilin binding compounds in whole cell assay.
DMEM, DMEM without Phenol Red, 10% FBS, 1× Sodium Pyruvate, 1× Glutamax. Add 125 ul of media with compound per well.
Experimental Protocol/Description of Assay: Plate HeLa-FKBP12 cells (for FKBP binding compounds) or HeLa-CyclophilinA cells (for cyclophilin binding compounds) and seed overnight at 5k/well (approximately −18 hrs.). Using a multi-channel pipet, take out the old media and add ˜125 ul of new media with compounds. Compounds are diluted using DMEM without Phenol Red, 10% FBS, 1× Sodium Pyruvate, lx Glutamax. Add 125 ul of media with compound per well. Cells are treated with compounds at concentration: 30, 10, 3.33, 1.11, 0.37, 0.12, 0.04 and 0.013 uM. Time points are taken at 72 hrs and plate read using plate reader with excitation/emission: 575/620.
Cell binding/permeability is calculated in fold-change (Total RFU of treated samples/total RFU of DMSO treated samples or total RFU above background (Total RFU minus total RFU of DMSO treated samples).

FKBP12 [3] = molecular target: T1, FKBP12; test: SPR kinetics of Compound 2 and Compound 6 binding to immobilized FKBP12 (Example 8); details: compound to immobilized FKBP12, 25° C.
Method: This protocol utilizes Surface Plasmon Resonance (SPR) as a method to determine kinetics (KD, Ka, Kd) for the binding of Compound 2 and Compound 6 (analyte) to immobilized FKBP12 (ligand).
Compound 2 and Compound 6 in 100% DMSO (in-house), 10×HBS-P+ buffer (GE Healthcare BR-1006-71), Assay buffer (1×HBS-P+ buffer, 1% DMSO), 12×HIS tagged FKBP12 (in-house).
as §1, with “Compound 2 or Compound 6” for “compound”
as §2

[4] = molecular target: CEP25011.4 (residues 2134-2231) (Homo sapiens (Human), UniProt P62942+Q9BV73); test: ITC binding of FKBP12-compound binary complex to CEP250
Method: (§3) This protocol utilizes Isothermal Titration Calorimetry (ITC) to directly measure the heat change associated with binding of FKBP12-Compound 2 and FKBP12-Compound 6 binary complexes to CEP250. Measurement of the heat change allows accurate determination of association constants (Ka), reaction stoichiometry (N), and the change in binding enthalpy (ΔH).
(§4) Compound 2 and Compound 6 in 100% DMSO (in-house), Protein Buffer (10 mM HEPES, pH 7.5, 75 mM NaCl, 0.5 mM TCEP), assay buffer (protein buffer+1% DMSO), FKBP12 (in-house), CEP25029.4 (residues 1982-2231) and CEP25011.4 (residues 2134-2231) (in-house).
(§5) MicroCal™ ITC200 (GE Healthcare) Experimental Protocol: FKBP12 stock solution was diluted to 10 μM in assay buffer (1% DMSO final). Compound was added to FKBP12 to 20 μM (1% DMSO final), and binary complex was filled into the reaction cell of the ITC device after 5-10 min pre-incubation time. CEP250 protein stocks were diluted to 50 μM in assay buffer and supplemented with 20 μM compound (1% DMSO final) before being filled into the injection syringe. A control experiment in the absence of compound was also run to determine the heat associated with operational artifacts and the dilution of titrant as it was injected from the syringe into the reaction cell.

[5] = molecular target: CEP25029.4 (residues 1982-2231) (Homo sapiens (Human), UniProt P62942+Q9BV73); test: as above
Method: as §3, §4, §5

Sequence of CEP25011.4 (residues 2134-2231) (Q9BV73 2134-2231): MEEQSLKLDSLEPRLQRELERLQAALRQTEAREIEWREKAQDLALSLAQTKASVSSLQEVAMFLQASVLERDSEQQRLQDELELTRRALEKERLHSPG
Sequence of CEP25011.4 (residues 2134-2231) (P62942 whole entry, the tested form may be a part): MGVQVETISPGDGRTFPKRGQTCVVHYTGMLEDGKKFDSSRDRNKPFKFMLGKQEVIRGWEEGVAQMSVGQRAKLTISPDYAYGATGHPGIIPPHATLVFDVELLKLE
T1 sequence (P62942 whole entry): as the sequence (P62942 whole entry, the tested form may be a part) above
Sequence of CEP25029.4 (residues 1982-2231) (Q9BV73 1982-2231): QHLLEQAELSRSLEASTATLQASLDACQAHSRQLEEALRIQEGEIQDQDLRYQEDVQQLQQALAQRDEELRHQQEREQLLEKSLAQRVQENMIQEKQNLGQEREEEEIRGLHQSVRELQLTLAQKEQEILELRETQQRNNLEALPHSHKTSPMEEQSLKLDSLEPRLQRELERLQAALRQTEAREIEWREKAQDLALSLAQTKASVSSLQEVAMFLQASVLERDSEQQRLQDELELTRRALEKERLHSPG
Sequence of CEP25029.4 (residues 1982-2231) (P62942 whole entry, the tested form may be a part): as the sequence (P62942 whole entry, the tested form may be a part) above

IC50 (HeLa-FKBP12 cells) | Structure (SMILES) | IC50 (FKBP12 [1]) | Kd (FKBP12 [2]) | other results
– | CC[C@H](Cc1ccccc1)[C@@H]1CCCCCC(=O)[C@@H](C)[C@H](O)[C@@H](C)[C@@H]2CC[C@@H](C)C(O)(O2)C(=O)C(=O)N2CCCC[C@H]2C(=O)O1 [Compound 10, (S)-1-(2-((2R,3R,6S)-6-((2R,3R,4S,6E,9E,11R,12R)-12-benzyl-3,11-dihydroxy-4-methyl-5-oxotetradeca-6,9-dien-2-yl)-2-hydroxy-3-methyltetrahydro-2H-pyran-2-yl)-2-oxoacetyl)piperidine-2-carboxylic acid C-11 lactone] | 0.00021 µM | – | –
– | CC[C@H](Cc1ccccc1)[C@@H]1/C=C/C/C=C/C(=O)[C@@H](C)[C@H](O)[C@@H](C)[C@@H]2CC[C@@H](C)[C@@](O)(O2)C(=O)C(=O)N2CCCC[C@H]2C(=O)O1 [Compound 3] | 0.00034 µM | 0.0013 µM | –
– | CC[C@H](Cc1ccccc1)[C@@H]1/C=C/C/C=C/C[C@@H](C)[C@H](O)[C@@H](C)[C@@H]2CC[C@@H](C)C(=O)C(O)(O2)C(=O)N2CCC[C@H]2C(=O)O1 [Compound 4] | 0.0048 µM | 0.0231 µM | –
– | CCC(Cc1ccccc1)C1/C=C/C/C=C/CC(C)C(O)C(C)C2CCC(C)C(O)(CC(=O)N3CCCCC3C(=O)O1)O2 (stereo not shown) [Compound 1] | 0.355 µM | 0.0715 µM | –
> 1 µM | CC[C@H](Cc1ccccc1)[C@@H]1/C=C/C/C=C/C[C@@H](C)C(=O)[C@@H](C)[C@@H]2CC[C@@H](C)[C@@](O)(O2)C(=O)C(=O)N2CCCC[C@H]2C(=O)O1 [Compound 9] | 0.785 µM | – | –
– | CC[C@H](Cc1ccccc1)[C@@H]1/C=C/C=C/CC(=O)[C@@H](C)[C@H](O)[C@@H](C)[C@@H]2CC[C@@H](C)C(=O)C(O)(O2)C(=O)N2CCCC[C@H]2C(=O)O1 [Compound 5] | 0.0188 µM | 0.007 µM | –
– | CC[C@H](Cc1ccccc1)[C@@H]1CCCCCC[C@@H](C)[C@H](O)[C@@H](C)[C@@H]2CC[C@@H](C)C(=O)C(O)(O2)C(=O)N2CCCC[C@H]2C(=O)O1 [Compound 6, (2S)-1-((4R,7S)-7-((2R,3S,4R,11 S,12R)-12-benzyl-3,11-dihydroxy-4-methyltetradecan-2-yl)-2-hydroxy-4-methyl-3-oxooxepane-2-carbonyl)piperidine-2-carboxylic acid C-11 lactone] | – | – | koff (FKBP12 [3]): 0.0088 s⁻¹; kon (FKBP12 [3]; read-out: Ka): 567000 M⁻¹ s⁻¹; Kd [4]: 0.08 µM; ΔH ([4]; ITC, FKBP12 10 μM in cell, CEP25011.4 68 μM in syringe, ligand 20 μM, 298 K): -11.42 kcal/mol; ΔG ([4]; ITC, FKBP12 10 μM, CEP25011.4 68 μM, ligand 20 μM, 298 K, ΔG = −RT ln Ka): -9.646 kcal/mol; −T*ΔS ([4]; ITC, FKBP12 10 μM, CEP25011.4 68 μM, ligand 20 μM, 298 K, −TΔS = ΔG − ΔH): 1.77 kcal/mol; Kd [5]: 0.36 µM; ΔH ([5]; ITC, FKBP12 10 μM in cell, CEP25029.4 118 μM in syringe, ligand 20 μM, 298 K): -13.98 kcal/mol; ΔG ([5]; ITC, FKBP12 10 μM, CEP25029.4 118 μM, ligand 20 μM, 298 K, ΔG = −RT ln Ka): -8.781 kcal/mol; −T*ΔS ([5]; ITC, FKBP12 10 μM, CEP25029.4 118 μM, ligand 20 μM, 298 K, −TΔS = ΔG − ΔH): 5.194 kcal/mol
< 1 µM | CC[C@H](Cc1cccc(O)c1)[C@@H]1/C=C/C/C=C/C[C@@H](C)[C@H](O)[C@@H](C)[C@@H]2CC[C@@H](C)[C@@](O)(O2)C(=O)C(=O)N2CCCC[C@H]2C(=O)O1 [Compound 8] | 0.0011 µM | – | –

Structure (SMILES) | IC50 (HeLa-FKBP12 cells) | IC50 (FKBP12 [1]) | Kd (FKBP12 [2]) | other results
CC[C@H](Cc1cccc(O)c1)[C@@H]1/C=C/C/C=C/C[C@@H](C)[C@H](O)[C@@H](C)[C@@H]2CC[C@@H](C)C(=O)[C@@](O)(O2)C(=O)N2CCCC[C@H]2C(=O)O1 [Compound 7] | < 1 µM | 0.00095 µM | – | –
